{
  "source": "paper PMC9997933",
  "about": "“Anticancer derivative of the natural alkaloid, theobromine, inhibiting EGFR protein: Computer-aided drug discovery approach” (PLOS ONE, 2023)",
  "molecular_target": "EGFR (Homo sapiens, UniProt P00533)",
  "sequence (P00533 25-1210)": "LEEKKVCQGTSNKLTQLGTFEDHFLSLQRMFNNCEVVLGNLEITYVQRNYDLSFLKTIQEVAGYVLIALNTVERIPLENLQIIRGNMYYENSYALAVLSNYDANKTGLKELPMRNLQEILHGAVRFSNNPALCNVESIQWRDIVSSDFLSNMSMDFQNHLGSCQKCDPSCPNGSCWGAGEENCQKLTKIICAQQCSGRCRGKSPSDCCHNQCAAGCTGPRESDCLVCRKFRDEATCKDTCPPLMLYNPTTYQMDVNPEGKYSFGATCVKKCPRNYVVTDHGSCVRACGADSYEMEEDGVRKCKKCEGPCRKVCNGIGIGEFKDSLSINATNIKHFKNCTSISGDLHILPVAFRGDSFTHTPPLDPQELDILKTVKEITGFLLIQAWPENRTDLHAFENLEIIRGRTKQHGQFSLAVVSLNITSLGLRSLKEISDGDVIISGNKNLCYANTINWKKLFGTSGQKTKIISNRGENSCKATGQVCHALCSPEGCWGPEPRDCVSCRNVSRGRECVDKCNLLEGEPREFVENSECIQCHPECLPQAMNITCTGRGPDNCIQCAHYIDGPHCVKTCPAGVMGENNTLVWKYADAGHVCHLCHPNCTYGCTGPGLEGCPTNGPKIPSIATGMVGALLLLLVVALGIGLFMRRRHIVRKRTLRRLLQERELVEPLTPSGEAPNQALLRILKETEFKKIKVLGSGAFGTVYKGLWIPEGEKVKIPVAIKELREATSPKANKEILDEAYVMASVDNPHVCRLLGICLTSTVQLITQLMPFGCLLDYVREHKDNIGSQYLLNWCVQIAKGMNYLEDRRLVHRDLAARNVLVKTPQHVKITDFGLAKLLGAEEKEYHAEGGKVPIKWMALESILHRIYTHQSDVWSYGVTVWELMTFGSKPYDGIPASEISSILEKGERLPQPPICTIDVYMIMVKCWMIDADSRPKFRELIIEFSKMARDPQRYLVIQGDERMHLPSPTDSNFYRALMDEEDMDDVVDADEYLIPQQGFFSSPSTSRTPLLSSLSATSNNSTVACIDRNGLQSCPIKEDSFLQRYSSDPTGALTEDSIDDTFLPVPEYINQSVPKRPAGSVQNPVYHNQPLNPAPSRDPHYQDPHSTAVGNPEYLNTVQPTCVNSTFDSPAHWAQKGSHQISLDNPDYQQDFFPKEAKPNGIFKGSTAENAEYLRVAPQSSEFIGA",
  "assay": "in vitro EGFR inhibition, Human EGFR ELISA kit",
  "assay_type": "biochemical",
  "data": [
    {"molecule": "Cc1cccc(NC(=O)Cn2c(=O)c3c(ncn3C)n(C)c2=O)c1", "note": "[T-1-MTA]", "values": [
      {"measurement": "IC50", "result": 22.9, "unit": "nM"}
    ]}
  ]
}
